From patent publication US20150157634A1, “METHODS OF TREATING AND PREVENTING ALLOANTIBODY DRIVEN CHRONIC GRAFT VERSUS HOST DISEASE” (PHARMACYCLICS, INC., priority 2013, published 2015)

What was measured:
[1] = test system: C57BL/6→B10.BR cGVHD model; assay: Pulmonary function tests (PFTs) at day 60 in therapeutic allo-HSCT cGVHD/bronchiolitis obliterans model; assay type: in vivo, mouse
Procedure: To determine whether ibrutinib could reverse established cGVHD, a murine model of alloantibody driven multi-organ system cGVHD including bronchiolar obliterans (BO) (MHC disparate, C57BL/6→B10.BR) was utilized.
(§1) Therapeutic allo-HSCT model: The C57BL/6→B10.BR model has been described previously (Srinivasan, M. et al. Blood 119, 1570-1580 (2012)). In brief, B10.BR recipients conditioned with 120 mg/kg/day I.P. cyclophosphamide (Cy) on days −3 and −2 and 8.3 Gy TBI (using a ^137Cesium irradiator) on day −1 were engrafted with 1×10^7 Thy1.2 depleted C57BL/6 derived bone marrow (BM) cells with (or without) 1×10^6 allogeneic splenocytes.
(§2) Therapeutic administration of ibrutinib via drinking water was conducted as previously described (Dubovsky 2013). Mice received a dose equivalent to 15 mg/Kg/day in 0.4% methylcellulose by intraperitoneal injection starting day 28 post-transplant for the C57BL/6→B10.BR model. Cyclosporine A was administered I.P. in 0.2% CMC at 10 mg/kg/day starting at day 25 for 2-weeks followed by 3× weekly (Blazar, B. R. et al. Blood 92, 3949-3959 (1998)).
Pulmonary function tests: Pulmonary function tests (PFTs) were performed on anesthetized mice using whole-body plehysmography with the Flexivent system (SCIREQ).

[2] = test system: C57BL/6→B10.BR cGVHD model; assay: Masson trichrome staining of pulmonary collagen deposition / fibrosis in cGVHD model; assay type: in vivo, mouse
Procedure: as §1, §2
Masson Trichrome staining: 6 μm cryosections were fixed for 5 minutes in acetone and stained with hematoxylin and eosin to determine pathology and with the Masson's trichrome staining kit (Sigma) for detection of collagen deposition. Histopathology scores were assigned as described (Blazar, B. R. et al. Blood 92, 3949-3959 (1998)). Collagen deposition was quantified on trichrome stained sections as a ratio of area of blue staining to area of total staining using the Adobe Photoshop CS3 analysis tool.

[3] = test system: C57BL/6→B10.BR cGVHD model; assay: Overall survival of cGVHD mice (Kaplan Meier); assay type: in vivo, mouse; details: ibrutinib cohort; FIG. 2
Procedure: FIG. 2 exemplifies survival of cGVHD mice in C57BL/6→B10.BR model. Kaplan Meier plot of overall survival for bone marrow (BM) non-cGVHD mice, BM+splenocyte (S) engrafted cGVHD irrelevant vehicle treated mice, or Ibrutinib treated BM+S engrafted mice.
as §1, §2

[4] = Weekly body weight of cGVHD mice; assay type: in vivo, mouse; details: BM, BM+S vehicle and BM+S ibrutinib groups; FIG. 3
Procedure: FIG. 3 exemplifies body weight of cGVHD mice in C57BL/6→B10.BR model. Bodyweight measurements for bone marrow (BM) non-cGVHD mice, BM+splenocyte (S) engrafted cGVHD irrelevant vehicle treated mice, or Ibrutinib treated BM+S engrafted mice.
as §1, §2

[5] = test system: C57BL/6→B10.BR cGVHD model; assay: Germinal center detection in spleen (PNA staining, flow cytometry of GC B-cells); assay type: in vivo, mouse
Source text: (§3) FIG. 4 exemplifies germinal center reactions and pulmonary immunoglobulin deposition are therapeutically abated with administration of ibrutinib. A) Germinal centers were imaged by staining 6 um spleen sections with PNA conjugated to rhodamine. B) Splenocytes were purified from transplanted mice on day 60 and frequency of germinal center B cells were quantified. C) 6 μm lung sections from day 60 transplanted mice were stained with anti-mouse Ig conjugated to FITC. D) quantified with Adobe Photoshop CS3.
as §1
as §2, with “(1998)). […]” for “(1998)).”

[6] = test system: C57BL/6→B10.BR cGVHD model; assay: Pulmonary immunoglobulin deposition (anti-mouse Ig FITC immunofluorescence of lung sections); assay type: in vivo; details: day 60 post-HSCT
Source text: as §3, §1, §2

## C=CC(=O)N1CCC[C@@H](n2nc(-c3ccc(Oc4ccccc4)cc3)c3c(N)ncnc32)C1 [ibrutinib, (R)-1-(3-(4-amino-3-(4-phenoxyphenyl)-1H-pyrazolo[3,4-d]pyrimidin-1-yl)piperidin-1-yl)prop-2-en-1-one]
[1]; C57BL/6→B10.BR cGVHD model
  pulmonary function (summary statement): restored pulmonary function
[1]; ibrutinib 15 mg/Kg/day from day 28 post-transplant, PFT day 60, p=0.0019, FIG. 1B
  development of BO as measured by pulmonary elastance: curtailed the development of BO in vivo
[1]; ibrutinib 15 mg/Kg/day from day 28 post-transplant, PFT day 60, p=0.0071, FIG. 1C
  development of BO as measured by pulmonary compliance: curtailed the development of BO in vivo
[1]; ibrutinib 15 mg/Kg/day from day 28 post-transplant, PFT day 60, p=0.0090, FIG. 1A
  development of BO as measured by pulmonary resistance: curtailed the development of BO in vivo
[2]; 4 mice from 3 experiments, representative images, FIG. 1D
  peribronchiolar collagen fibrosis, Masson Trichrome staining of inflated pulmonary tissues: less peribroncheolar collagen fibrosis
[2]; C57BL/6→B10.BR cGVHD model
  lung and liver fibrosis (summary statement): reversed lung and liver fibrosis
[2]; p<0.0001, FIG. 1E
  quantified trichrome staining (pulmonary fibrosis, ratio of blue area to total area): ameliorates pulmonary fibrosis caused by cGVHD
[3]
  survival: 100%
[4]
  mouse bodyweight, weekly evaluation: little variation between groups
[5]; compared to vehicle treated mice with active cGVHD, FIG. 4A
  GC reactions within the spleen (peanut agglutinin staining): reduced the overall size, cellularity, and number of GC reactions
[5]; day 60 post-HSCT, 8 mice per group, p=0.0222, FIG. 4B
  CD19+GL7+CD38lo germinal center B-cells within the spleen (flow cytometry): significantly inhibited the cGVHD-induced formation germinal center B-cells
[6]; FIG. 4C
  pulmonary deposition of allo-Ig (immunofluorescent microscopy): limited pulmonary deposition of allo-Ig
[6]; p<0.001, FIG. 4D
  quantified immunofluorescent signal of pulmonary Ig deposition: significant and complete ablation of pulmonary Ig deposition
